Measurements reported in patent publication US10400022B2, “Neuropilin-1 specific binding peptide, fusion protein fused with same, and use thereof” (AJOU UNIVERSITY INDUSTRY-ACADEMIC COOPERATION FOUNDATION, priority 2015, dated 2019).
Where no end group is shown, it is not given here.

B1: VEGF165A: vascular endothelial cell growth factor-A, NRP1 ligand used as control (protein)
chain: APMAEGGGQNHHEVVKFMDVYQRSYCHPIETLVDIFQEYPDEIEYIFKPSCVPLMRCGGCCNDEGLECVPTEESNITMQIMRIKPHQGQHIGEMSFLQHNKCECRPKKDRARQENPCGPCSERRKHLFVQDPQTCKCSCKNTDSRCKARQLELNERTCRCDKPRR

Legend:
[1] = test system: human umbilical vein endothelial cells (HUVECs); assay: Transwell assay of penetration of vascular endothelial cells (dextran-FITC); type: cell-based; conditions: 1 μM for 30 minutes (VEGF165A about 1.3 nM); dextran-FITC fluorescence in lower chamber
Protocol: Specifically, 5×10^4 human umbilical vein endothelial cells (HUVECs) were seeded into the upper chamber of a transwell plate (Corning) and incubated in EGM2 for 3 days under the conditions of 37° C. and 5% CO2. […] Then, 50 μl of dextran-FITC (Sigma) was added to the upper chamber. After 30 minutes, based on the principle according to which the fluorescent substance would be observed when penetration into the vascular endothelial cells was increased, the medium was sampled from the lower chamber and the fluorescence thereof was measured.

[2] = test system: A431 cells expressing neuropilin-1; assay: Immunohistochemistry of tumor tissue penetration in A431 xenograft; type: in vivo, Balb/c nude mice; conditions: 10 mg/kg intravenously, 15 hours after injection
Protocol: At 15 hours after injection, the tumor was extracted from the mice and subjected to immunohistochemistry. The extracted tumor tissue was sectioned to a thickness of 20 μm by a frozen-section method, and the blood vessels were stained with the primary antibody CD31 antibody (BD Pharmingen) and TRITC (red fluorescence)-labeled secondary antibody that recognizes the same. In addition, to observe the distribution of the Fc-TPP1, Fc-TPP8 and Fc-TPP11 fusion proteins in the tissue, an FITC (green fluorescence)-labeled antibody that recognizes Fc was used.

[3] = test system: E-cadherin; assay: Western blot of E-cadherin in FaDu cells; type: cell-based; conditions: human head and neck cancer FaDu cells
Protocol: (§1) Specifically, 5×10^5 HUVEC cells were seeded into each well of a 6-well plate and incubated for 24 hours, and then treated with 0.1 μM of the fusion protein of the antibody heavy-chain constant Fc region and the selected peptide that binds specifically to NRP1, for 10 minutes, followed by Western blot analysis. After SDS-PAGE, the gel was transferred to a PVDF membrane, and detection was performed using primary antibodies (SantaCruz) that recognize VE-cadherin and β-actin and using HRP-conjugated secondary antibody (SantaCruz), and analysis was performed using ImageQuant LAS4000 mini (GE Healthcare).
In order to examine whether the Fc-TPP1, Fc-TPP8 and Fc-TPP11 fusion proteins also have an enhanced ability to penetrate cancer cells, a change in E-cadherin in human head and neck cancer FaDu cells expressing NRP1 was analyzed by Western blot analysis under the same conditions as described above.

[4] = test system: VE-cadherin; assay: Western blot of VE-cadherin in HUVEC; type: cell-based, human; conditions: for change in VE-cadherin: 10 minutes
Protocol: as §1, with “and then treated with 0.1 μM of the fusion protein of the antibody heavy-chain” left out

[5] = test system: VEGF165A-induced angiogenesis; assay: In vivo matrigel plug assay; set-up: species or system Balb/c nude mice; conditions: 200 μg in matrigel plug with A431 cells, 8 days
Protocol: Additionally, in order to examine anti-angiogenesis activity in vivo, a matrigel plug assay was performed. […] After 8 days, the matrigel plug was extracted, imaged (FIG. 15(B)), and then sectioned to a thickness of 20 μm by a frozen-section method, and subjected to immunohistochemistry. The blood vessels were stained with the primary antibody CD31 and a TRITC (red fluorescence)-labeled secondary antibody recognizing the same, and the density of the blood vessels was measured.

[6] = molecular target: T1, NRP1 displayed on the human umbilical vein endothelial cell (HUVEC) surface (Homo sapiens, UniProt O14786); assay: Confocal co-localization with NRP1 on HUVEC surface; type: cell-based; conditions: 1 μM, 30 minutes, 4° C., confocal microscopy
T1 construct: endogenous in cells; host or cells: HUVEC
Protocol: In an experiment for biological identification of the peptides that binds specifically to NRP1, human umbilical vein endothelial cells (HUVECs) overexpressing NRP1 were used.
Specifically, 5×10^4 HUVEC cells were added to each well of a 24-well plate and incubated in 0.5 ml of EGM2 (Endothelial growth medium, Promocell) medium for 24 hours under the conditions of 5% CO2 and 37° C. […] Next, the medium was removed, and each well was washed with cold PBS. Then, the fusion protein wherein the selected peptide that binds specifically to NRP1 is fused to the antibody heavy-chain constant region was stained with FITC (green fluorescence)-labeled antibody (Sigma) that specifically recognizes Fc, and NRP1 was stained with primary antibody (Abcam) that recognizes NRP1 and with TRITC (red fluorescence)-labeled secondary antibody. The nucleus was stained (blue fluorescence) with DAPI and analyzed by confocal microscopy.

[7] = molecular target: T2, NRP1-b1b2 (273-586) protein (Homo sapiens, UniProt O14786); assay: Competitive ELISA with VEGF165A / RPARPAR on NRP1-b1b2; type: binding; conditions: VEGF165A 25 nM to 0.02 nM
T2 construct: made in house
Protocol: In order to evaluate competitive binding of the TPP11 peptide, which binds specifically to NRP1 without binding to NRP2, and VEGF165A and a RPARPAR peptide, known to bind to the arginine-binding pocket of the NRP1-b1 domain, competitive ELISA was performed.
Specifically, binding NRP1-b1b2 (273-586) protein to each well of a 96-well EIA/RIA plate or a 96-well EIA/RIA black plate (COSTAR Corning In., USA) at room temperature for […], is followed by washing three times with 0.1% PBST (0.1% Tween20, pH 7.4, 137 mM NaCl, 10 mM Phosphate, 2.7 mM KCl, SIGMA-ALDRICH co., USA) for 10 minutes. After binding with 5% skim milk (5% Skim milk, pH 7.4, 137 mM NaCl, 10 mM Phosphate, 2.7 mM KCl, SIGMA-ALDRICH co., USA) for 1 hour, each well was washed three times with 0.1% PBST (0.1% Tween20, pH 7.4, 137 mM NaCl, 10 mM Phosphate, 2.7 mM KCl, SIGMA-ALDRICH co., USA) for 10 minutes. […] Then, each mixture was incubated with AP-conjugated anti-human antibody (alkaline phosphatase-conjugated anti-human mAb, Sigma, USA), and then reacted with pNPP ([…], SIGMA-ALDRICH co., USA), and the absorbance at 405 nm was measured.

[8] = test system: FaDu cells; assay: Tumor tissue penetration of co-administered doxorubicin (IHC); type: in vivo, Balb/c nude mice; conditions: doxorubicin 10 mg/kg with 2.5 mg/kg PBS, Fc or Fc-TPP11 intravenously, 1 hour
Protocol: In order to examine tumor tissue penetration of a small-molecule drug co-administered with the Fc-TPP11 constructed in the above-described experiment, immunohistochemistry was performed. Specifically, each of Balb/c nude mice was injected subcutaneously with 5×10^6 FaDu cells, and after about 15 days, when the tumor volume reached about 300 to 400 mm^3, 10 mg/kg of the anticancer drug doxorubicin and 2.5 mg/kg of each of PBS, Fc and Fc-TPP11 were injected intravenously into each mouse. At 1 hour after injection, the mouse heart was perfused with PBS and perfused with 4% para-formaldehyde to fix tissue. Next, the tumor tissue was extracted and subjected to immunohistochemistry. The extracted tumor was sectioned to a thickness of 20 μm by a frozen-section method, and the blood vessels were stained with the primary antibody CD31 (BD Pharmingen) and a FITC (green fluorescence)-labeled secondary antibody recognizing the same.
According to the same method as that used for FIG. 18(A), doxorubicin and each of PBS, Fc and Fc-TPP11 were injected intravenously into mice, and the mouse heart was perfused with PBS, and the tumor tissue was extracted. […] Then, the tissue was thawed at 37° C. and centrifuged, and the fluorescence (Excitation 485 nm/emission 528 nm) of the supernatant was measured to quantify the amount of doxorubicin penetrated.

[9] = test system: HUVEC cells; assay: Tube formation assay in HUVEC; type: cell-based, human; conditions: VEGF165A 20 ng/ml, Fc-TPP11 1 μM, 8 hours
Protocol: VEGF165A is known to […] angiogenesis using NRP1 as a co-receptor. Based on this, as a method capable of observing angiogenesis in vitro, a tube formation assay was performed. In an experimental method, 50 μl of ECMatrix was added to a 96-well plate and polymerized at 37° C. for 2 hours. After 2 hours, HUVEC cells were suspended in EBM2 medium, mixed with VEGF165A (20 ng/ml), Fc or Fc-TPP11 (1 μM), plated on the ECMatrix at a density of 1×10^4 cells per well, and incubated for 8 hours. The incubated cells were imaged with a microscope.

[10] = test system: HUVEC cells; assay: Transwell invasion assay of vascular endothelial cells; type: cell-based, human; conditions: VEGF165A 20 ng/ml, 1 μM, 12 hours
Protocol: Additionally, in order to examine the inhibitory activity of Fc-TPP11 against VEGF165A-induced invasion of vascular endothelial cells, a transwell assay was performed. A transwell (Corning Costar, USA) having a polycarbonate membrane with a […] pore size was used. Matrigel (Corning Costar, USA) was coated on the lower layer surface of the filter at a ratio of 1:10 and polymerized for 2 hours under the conditions of 37° C. and 5% CO2, and then 5×10^4 HUVEC cells and each of Fc and Fc-TPP11 (1 μM) were seeded in EBM2 medium in the upper layer well. In addition, EBM2 medium containing VEGF165A (20 ng/ml) was added to the lower layer well. Next, the cells were incubated for 12 hours under the conditions of 37° C. and 5% CO2, and then unmoved cells in the upper layer well were removed with cotton, and the cells were fixed with 4% para-formaldehyde. Then, the cells were stained with crystal violet.

[11] = test system: HUVEC cells; assay: Wound healing assay (migration of vascular endothelial cells); type: cell-based, human; conditions: VEGF165A 20 ng/ml, 1 μM, 18 hours
Protocol: In addition to the results obtained in Examples 8(1) and 8(2), in order to examine the inhibitory activity of Fc-TPP11 against VEGF165A-induced migration of vascular endothelial cells, a wound healing assay was performed. In an experimental method, 5×10^5 HUVEC cells were seeded into each well of a 6-well plate, and then incubated in 0.5% serum EBM2 medium containing 1 μg/ml mitomycin c for 1 hour until the cells were saturated (95% or more) in the plate. The dish bottom was linearly rubbed with a yellow tip to make injury lines having a uniform width. Then, the cells were washed with PBS such that the cells were detached from the bottom. After removal of PBS, medium was added slowly to the HUVEC cells. The cells were treated with 0 or 20 ng/ml of VEGF165A, treated with each of Fc and Fc-TPP11 (1 μM), and then incubated under the conditions of 37° C. and 5% CO2. The cells were imaged with a microscope (Primo vert, Carl Zeiss co., Germany) at 0 hour and 18 hours, and the distance between both ends, measured with a computer program (AxioVision LE, Carl Zeiss co., Germany) included in the microscope, was statistically processed.

Row | Molecule | ability to penetrate vascular endothelial cells [1] | tumor tissue accumulation and penetration [2] | change in E-cadherin [3] | change in VE-cadherin at 1 μM ([4]; 1 μM) | change in VE-cadherin [4] | VEGF165A-induced angiogenesis (density of blood vessels, CD31) [5] | binding to NRP1 on the HUVEC cell surface [6] | binding to NRP1-b1b2 competitively with VEGF165A [7] | tumor tissue penetration of doxorubicin [8] | tube formation [9] | invasion activity of vascular endothelial cells [10] | migration activity of vascular endothelial cells [11]
1 | Fc-A22p: control Fc fusion of A22p peptide (HTPGNSNKWKHLQENKKGRPRR) that binds to both NRP1 and NRP2 (also: fused to Fc, not in chain) | had an increased ability to penetrate vascular endothelial cells | selectively reached tumor tissue | induced a decrease in E-cadherin | VE-cadherin significantly decreased | a decrease in VE-cadherin was observed | inhibited VEGF165A-induced angiogenesis in living mice | did bind to NRP1 on the HUVEC cell surface | overlapped a portion of NRP1 to which VEGF165A did bind | – | – | – | –
2 | COc1cccc2c1C(=O)c1c(O)c3c(c(O)c1C2=O)C[C@@](O)(C(=O)CO)C[C@@H]3O[C@H]1C[C@H](N)[C@H](O)[C@H](C)O1 [doxorubicin] | – | – | – | – | – | – | – | – | little or no red fluorescence was observed | – | – | –
3 | B1 | had an increased ability to penetrate vascular endothelial cells | – | – | – | a decrease in VE-cadherin was observed | – | – | – | – | tube formation increased | increased the invasion activity of vascular endothelial cells | increased the migration activity of vascular endothelial cells
